Source: paper PMC11651915, “Small molecule protein assembly modulators with pan-cancer therapeutic efficacy” (Open Biology, 2024)

Legend:
PC-3 = assay: cells; assay type: cell-based; details: Homo sapiens, NCI-60, 48 h
OVCAR-4 = assay: cells; details: Homo sapiens, OVCAR-4, 48 h
SR = assay: cells; details: Homo sapiens, 48 h
SF-539 = assay: cells; details: Homo sapiens, SF-539, 48 h
FaDu = assay: Eurofins OncoPanel (CellTiter-Glo); assay type: cell-based; details: Homo sapiens, 72 h, 3 days
MDA MB 436 = assay: Eurofins OncoPanel (CellTiter-Glo); assay type: cell-based; details: Homo sapiens, 72 h, 3 days
CCRF-CEM = assay: cells; assay type: cell-based; details: Homo sapiens, NCI-60, 48 h
BT-549 = assay: cells; details: Homo sapiens, BT-549, 48 h
[1] = system: BB5 patient biopsy derived cell line (breast adenocarcinoma); assay: BB1 and BB5 adenoma versus carcinoma screen (confocal imaging); assay type: cell-based; details: Homo sapiens, 60 h, percent ChromaLive negative
MDA-MB-468 = assay: cells; details: Homo sapiens, MDA-MB-468, 48 h
MHH-PREB-1 = assay: Eurofins OncoPanel (CellTiter-Glo); details: Homo sapiens, MHH-PREB-1, 72 h
HL-60(TB) = assay: cells; details: Homo sapiens, HL-60, 48 h
UACC-62 = assay: cells; details: Homo sapiens, UACC-62, 48 h
A549/ATCC = assay: cells; assay type: cell-based; details: Homo sapiens, NCI-60, 48 h
SK-MEL-28 = assay: cells; details: Homo sapiens, SK-MEL-28, 48 h
MDA-MB-231/ATCC = assay: cells; details: Homo sapiens, MDA-MB-231, 48 h
UACC-257 = assay: cells; details: Homo sapiens, UACC-257, 48 h
NCI-H460 = assay: cells; assay type: cell-based; details: Homo sapiens, NCI-60, 48 h
MOLT-4 = assay: cells; assay type: cell-based; details: Homo sapiens, NCI-60, 48 h
SN12C = assay: cells; details: Homo sapiens, 48 h
Hennes 20 cells = assay: High density/low density 'arrest of proliferation' assay; assay type: cell-based, Chinese hamster; details: Hennes 20, 72 h, AlamarBlue
COLO 205 = assay: cells; assay type: cell-based; details: Homo sapiens, NCI-60, 48 h
A549 and MRC-5 cells = assay: Toxicity to A549 cancer line versus non-cancer MRC-5 cells; assay type: cell-based
MALME-3M = assay: cells; assay type: cell-based; details: Homo sapiens, NCI-60, 48 h
NCI-H322M = assay: cells; details: Homo sapiens, 48 h
DB = assay: Eurofins OncoPanel (CellTiter-Glo); assay type: cell-based; details: Homo sapiens, 72 h, 3 days
SK-MEL-5 = assay: cells; details: Homo sapiens, SK-MEL-5, 48 h
OVCAR-5 = assay: cells; details: Homo sapiens, OVCAR-5, 48 h
[2] = system: BB1 patient biopsy derived cell line (benign adenoma); assay: BB1 and BB5 adenoma versus carcinoma screen (confocal imaging); assay type: cell-based, human; details: Homo sapiens, 60 h, percent ChromaLive negative
A172 = assay: Eurofins OncoPanel (CellTiter-Glo); assay type: cell-based; details: Homo sapiens, A 172, 72 h, 3 days
SF-268 = assay: cells; details: Homo sapiens, SF-268, 48 h
HS 578T = assay: cells; details: Homo sapiens, 48 h
DU-145 = assay: cells; details: Homo sapiens, DU-145, 48 h
HCT-116 = assay: cells; assay type: cell-based; details: Homo sapiens, NCI-60, 48 h
[3] = system: A549 human lung cancer xenograft; assay: A549 xenograft studies; details: A549 xenograft, PAV-951 study, 14 days, IV; PAV-951 1.5 mg kg^−1 once daily, Gemcitabine 100 mg kg^−1 twice weekly
LOX IMVI = assay: cells; details: Homo sapiens, 48 h
NCI/ADR-RES = assay: cells; details: Homo sapiens, 48 h

`CC(C)CCNc1ncnc2cc(N3CCN(c4ccc5c(NCCC(C)C)ncnc5c4)CC3)ccc12` [PAV-951] gave a GI50 (PC-3) of 0.399 µM, a GI50 (OVCAR-4) of 0.452 µM and a CC50 (OVCAR-4; read-out: LC50) of 4.56 µM. It also gave a GI50 (SR) of 0.0519 µM, a CC50 (SR; read-out: LC50) of 1.9 µM and a GI50 (SF-539) of 0.683 µM. The CC50 (SF-539; read-out: LC50) was 4.53 µM, the IC50 (FaDu) was 0.523 µM and the IC50 (MDA MB 436) was 1.46 µM. The GI50 (CCRF-CEM) was 0.198 µM, the GI50 (BT-549) was 1.59 µM and the CC50 (BT-549; read-out: LC50) was 6.04 µM. It also gave an IC50 [1] of 0.5 µM, a GI50 (MDA-MB-468) of 1.47 µM and a CC50 (MDA-MB-468; read-out: LC50) of 5.61 µM. For the same molecule, the IC50 (MHH-PREB-1) was 0.4 µM, the GI50 (HL-60(TB)) was 0.269 µM and the GI50 (UACC-62) was 1.38 µM. The CC50 (UACC-62; read-out: LC50) was 5.61 µM, the GI50 (A549/ATCC) was 0.302 µM and the GI50 (SK-MEL-28) was 1.33 µM. It also gave a CC50 (SK-MEL-28; read-out: LC50) of 5.24 µM, a GI50 (MDA-MB-231/ATCC) of 0.488 µM and a CC50 (MDA-MB-231/ATCC; read-out: LC50) of 4.42 µM. It also gave a GI50 (UACC-257) of 1.71 µM, a CC50 (UACC-257; read-out: LC50) of 5.98 µM and a GI50 (NCI-H460) of 0.203 µM. The GI50 (MOLT-4) was 0.223 µM, the GI50 (SN12C) was 0.28 µM and the CC50 (SN12C; read-out: LC50) was 3.41 µM. The “inhibitory effect at low (500 cells per well) versus high (15 000 cells per well) density” value (Hennes 20 cells) was “difference between their inhibitory effects on low and high density-plated Hennes 20 cells”, the GI50 (COLO 205) was 0.61 µM and the “toxicity to A549 cancer line compared with non-cancer MRC-5 cells” value (A549 and MRC-5 cells) was “selectively toxic to the A549 cancer line”. It also gave a GI50 (MALME-3M) of 1.52 µM, a GI50 (NCI-H322M) of 1.2 µM and a CC50 (NCI-H322M; read-out: LC50) of 5.55 µM. For the same molecule, the IC50 (DB) was 0.895 µM, the GI50 (SK-MEL-5) was 1.87 µM and the CC50 (SK-MEL-5; read-out: LC50) was 9.12 µM. The GI50 (OVCAR-5) was 1.08 µM, the CC50 (OVCAR-5; read-out: LC50) was 4.83 µM and the IC50 [2] was 3.35 µM. It also gave an IC50 (A172) of 1.02 µM, a GI50 (SF-268) of 0.217 µM and a CC50 (SF-268; read-out: LC50) of 2.01 µM. For the same molecule, the GI50 (HS 578T) was 0.352 µM, the CC50 (HS 578T; read-out: LC50) was > 100 µM and the GI50 (DU-145) was 0.283 µM. For the same molecule, the CC50 (DU-145; read-out: LC50) was 2.83 µM, the GI50 (HCT-116) was 0.185 µM and the “tumour growth inhibition (TGI)” value [3] was 72%. For the same molecule, the GI50 (LOX IMVI) was 0.183 µM, the CC50 (LOX IMVI; read-out: LC50) was 0.684 µM and the GI50 (NCI/ADR-RES) was 0.401 µM. The CC50 (NCI/ADR-RES; read-out: LC50) was 4.85 µM.
